These results are taken from patent US20240158393A1, “PYRIDONE COMPOUNDS AND METHODS OF USE” (Exelixis, Inc., priority 2021, published 2024).

One assay deals with T1, Human Mer (Homo sapiens, UniProt Q12866).
T1 construct: Human Mer (residues R557-E882 with H628Q and R794A, 0.7 nM); purchased Eurofins Pharma Discovery Services UK Limited (KinaseProfiler service)
T1 sequence (Q12866 557-882 limits assumed): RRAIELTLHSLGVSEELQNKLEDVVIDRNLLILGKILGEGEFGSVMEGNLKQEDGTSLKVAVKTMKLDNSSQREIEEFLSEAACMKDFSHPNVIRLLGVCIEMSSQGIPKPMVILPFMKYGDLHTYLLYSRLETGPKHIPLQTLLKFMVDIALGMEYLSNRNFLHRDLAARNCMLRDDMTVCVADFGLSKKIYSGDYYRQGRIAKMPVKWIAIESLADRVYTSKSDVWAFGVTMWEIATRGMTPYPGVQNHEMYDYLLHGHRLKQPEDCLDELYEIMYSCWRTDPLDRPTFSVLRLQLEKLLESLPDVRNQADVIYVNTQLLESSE
In words: Human Mer kinase assay (33P radiometric / HTRF KinEase). It counts as biochemical. Particulars: protocols of Examples C-1 and/or C-2. In a few lines: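 Two formats yield IC50 values. HTRF KinEase used MER residues 528-999 with ATP at Km (40 μM), 1 μM biotin-peptide, 60 min RT, […], 10 concentrations. 33P filter assay used 0.7 nM Mer R557-E882 (H628Q/R794A), 10 μM ATP, 250 μM peptide, 40 min RT, top 1 μM.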

The next assay deals with T2, Human KDR (Homo sapiens, UniProt P35968).
T2 construct: Human KDR (residues K790-V1356, 55 nM); purchased Eurofins Pharma Discovery Services UK Limited (KinaseProfiler, B-1) and/or CarnaBio (B-2)
Put plainly: Human KDR kinase assay (33P radiometric / HTRF KinEase). It counts as biochemical. Particulars: protocols of Examples B-1 and/or B-2. A digest of the protocol:
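Radiometric: KDR K790-V1356 (55 nM), MOPS pH 7.0, myelin basic protein, 10 μM [γ-33P]ATP, 40 min at room temperature, filter-bound 33P counted; nine half-log doses, top 1 μM. HTRF: KDR 790-1356, 1 μM biotinylated peptide, ATP at Km (4.0 μM), 40 min, 10 doses. IC50 from logistic fits.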

Each structure is given as a SMILES string. Where a name gives a salt, the structure may show the parent alone. A value given as a limit tells only on which side of the number the result lay.

T2 sequence (P35968 790-1356): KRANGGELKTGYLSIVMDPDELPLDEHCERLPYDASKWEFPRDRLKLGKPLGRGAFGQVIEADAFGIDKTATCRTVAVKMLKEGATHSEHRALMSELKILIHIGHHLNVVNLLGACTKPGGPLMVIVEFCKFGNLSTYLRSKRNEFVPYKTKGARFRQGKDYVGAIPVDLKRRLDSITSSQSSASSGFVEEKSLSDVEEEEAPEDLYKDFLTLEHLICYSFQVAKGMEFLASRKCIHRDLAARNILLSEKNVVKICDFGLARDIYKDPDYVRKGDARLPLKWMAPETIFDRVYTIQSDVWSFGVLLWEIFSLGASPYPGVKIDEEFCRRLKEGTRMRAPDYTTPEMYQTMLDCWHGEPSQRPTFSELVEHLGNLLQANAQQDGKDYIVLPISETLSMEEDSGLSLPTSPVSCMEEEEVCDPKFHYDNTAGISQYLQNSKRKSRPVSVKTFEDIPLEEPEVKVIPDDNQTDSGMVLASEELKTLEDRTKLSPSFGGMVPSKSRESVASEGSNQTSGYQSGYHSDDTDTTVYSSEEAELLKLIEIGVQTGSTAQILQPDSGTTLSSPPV

For `C=C(C)c1c(C)n(C)c(C)c(C(=O)Nc2ccc(Oc3ccnc4cc(OC)c(OC)nc34)c(F)c2)c1=O` [Compound 52, N-[4-[(6,7-Dimethoxy-1,5-naphthyridin-4-yl)oxy]-3-fluorophenyl]-1,2,6-trimethyl-4-oxo-5-prop-1-en-2-ylpyridine-3-carboxamide], the IC50 against Human Mer was not above 100 nM; on Human KDR it was more than 300 nM.

Turning to `COc1cc2nccc(Oc3ccc(NC(=O)c4c(C)n(C)c(C)c(C5=CCOCC5)c4=O)cc3F)c2nc1OC` [Compound 53, 5-(3,6-Dihydro-2H-pyran-4-yl)-N-[4-[(6,7-dimethoxy-1,5-naphthyridin-4-yl)oxy]-3-fluorophenyl]-1,2,6-trimethyl-4-oxopyridine-3-carboxamide], the half-maximal inhibitory concentration (IC50) was not above 100 nM against Human Mer and more than 300 nM against Human KDR.

With `COCCOc1cc2nccc(Oc3ccc(NC(=O)c4c(C)n(C)c(C)c(/C=C/C5CCCC5)c4=O)cc3F)c2nc1OC` [Compound 54, 5-[(E)-2-Cyclopentylethenyl]-N-[3-fluoro-4-[[6-methoxy-7-(2-methoxyethoxy)-1,5-naphthyridin-4-yl]oxy]phenyl]-1,2,6-trimethyl-4-oxopyridine-3-carboxamide], the values for the IC50 against Human Mer and against Human KDR were not above 100 nM and 100 to 300 nM, respectively.

With `C=C(C)c1c(C)n(C)c(C)c(C(=O)Nc2ccc(Oc3ccnc4cc(OC)c(OC)nc34)cc2)c1=O` [Compound 55, N-[4-[(6,7-Dimethoxy-1,5-naphthyridin-4-yl)oxy]phenyl]-1,2,6-trimethyl-4-oxo-5-prop-1-en-2-ylpyridine-3-carboxamide], the IC50 at Human Mer was not above 100 nM; at Human KDR, more than 300 nM.

On to `COCCOc1cc2nccc(Oc3ccc(NC(=O)c4c(C)n(C)c(C)c(C5=CCCCC5)c4=O)cc3F)c2nc1OC` [Compound 58, 5-(Cyclohexen-1-yl)-N-[3-fluoro-4-[[6-methoxy-7-(2-methoxyethoxy)-1,5-naphthyridin-4-yl]oxy]phenyl]-1,2,6-trimethyl-4-oxopyridine-3-carboxamide], for which the 50% inhibitory concentration (IC50) against Human Mer and at Human KDR was not above 100 nM each time.

Consider `COCCOc1cnc2c(Oc3ccc(NC(=O)c4c(C)n(C)c(C)c(C5=CCCC5)c4=O)cc3F)ccnc2c1` [Compound 65, 5-(Cyclopenten-1-yl)-N-[3-fluoro-4-[[7-(2-methoxyethoxy)-1,5-naphthyridin-4-yl]oxy]phenyl]-1,2,6-trimethyl-4-oxopyridine-3-carboxamide], for which the IC50 on Human Mer was not above 100 nM; on Human KDR, 100 to 300 nM.

`COCCOc1cnc2c(Oc3ccc(NC(=O)c4c(C)n(C)c(C)c(C5=CCCCC5)c4=O)cc3F)ccnc2c1` [Compound 66, 5-(Cyclohexen-1-yl)-N-[3-fluoro-4-[[7-(2-methoxyethoxy)-1,5-naphthyridin-4-yl]oxy]phenyl]-1,2,6-trimethyl-4-oxopyridine-3-carboxamide]: the concentration for half-maximal inhibition (IC50) was not above 100 nM against Human Mer and more than 300 nM at Human KDR.

For `COc1cc2nccc(Oc3ccc(NC(=O)c4c5n(c(C)c(C6=CCOCC6)c4=O)CCOC5)cc3)c2nc1OC` [Compound 73, 7-(3,6-Dihydro-2H-pyran-4-yl)-N-[4-[(6,7-dimethoxy-1,5-naphthyridin-4-yl)oxy]phenyl]-6-methyl-8-oxo-3,4-dihydro-1H-pyrido[2,1-c][1,4]oxazine-9-carboxamide], the half-maximal inhibitory concentration (IC50) is not above 100 nM at Human Mer and more than 300 nM against Human KDR.

For the compound `COc1nc2c(Oc3ccc(NC(=O)c4c(C)n(C)c(C)c(C5=CCCC5)c4=O)cc3F)ccnc2cc1OCCC1CCC1` [Compound 74, N-[4-[[7-(2-Cyclobutylethoxy)-6-methoxy-1,5-naphthyridin-4-yl]oxy]-3-fluorophenyl]-5-(cyclopenten-1-yl)-1,2,6-trimethyl-4-oxopyridine-3-carboxamide], the IC50 against Human Mer and at Human KDR was not above 100 nM in each case.

Regarding `COc1cc2nccc(Oc3ccc(NC(=O)c4cnc(C)c(C5=CCCC5)c4O)cc3F)c2nc1OC` [Compound G1-2, 5-(Cyclopenten-1-yl)-N-[4-[(6,7-dimethoxy-1,5-naphthyridin-4-yl)oxy]-3-fluorophenyl]-4-hydroxy-6-methylpyridine-3-carboxamide hydrochloride], the IC50 at Human Mer and against Human KDR was not above 100 nM each time.

As to `COc1cc2nccc(Oc3ccc(NC(=O)c4cnc(C)c(C5=CCCCC5)c4O)cc3F)c2nc1OC` [Compound G1-3, 5-(Cyclohexen-1-yl)-N-[4-[(6,7-dimethoxy-1,5-naphthyridin-4-yl)oxy]-3-fluorophenyl]-4-hydroxy-6-methylpyridine-3-carboxamide], the concentration for half-maximal inhibition (IC50) at Human Mer and on Human KDR was not above 100 nM in each case.

Turning to `COc1cc2nccc(Oc3ccc(NC(=O)c4c5n(cc(C6=CCCCC6)c4=O)CCOC5)cc3F)c2nc1OC` [Compound G1-4, 7-(Cyclohexen-1-yl)-N-[4-[(6,7-dimethoxy-1,5-naphthyridin-4-yl)oxy]-3-fluorophenyl]-8-oxo-3,4-dihydro-1H-pyrido[2,1-c][1,4]oxazine-9-carboxamide], the IC50 against Human Mer and on Human KDR was not above 100 nM each time.
